Laboratory results taken from patent US20250304549A1, “HYDROXYAMIDE DERIVATIVE AND USE THEREOF” (SICHUAN HUIYU PHARMACEUTICAL CO., LTD., priority 2022, published 2025).
Structures can show the parent of a compound that is named as a salt.

Experiments:
LSD1 = LSD1 (Homo sapiens (Human), UniProt O60341); assay: In vitro enzyme inhibition assay - LSD1 (HTRF); assay type: biochemical
pan-HDAC = assay: In vitro enzyme inhibition assay - HDAC (HDAC-Glo I/II), pan-HDAC; assay type: biochemical
Method in brief: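 Eight compound concentrations (5-fold gradient; 1 mM DMSO stock) were assayed by HDAC-Glo I/II luminescence. IC50 was obtained by four-parameter fitting.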

HDAC8 = HDAC8 (Homo sapiens (Human), UniProt Q9BY41); assay: In vitro enzyme inhibition assay - HDAC (HDAC-Glo I/II), HDAC8; assay type: biochemical; details: read-out: HDAC IC50 (nM) HDAC 8
Protocol: 2. In Vitro Enzyme Inhibition Assay—HDAC
The effect of the compound on the enzymatic activity of pan-HDAC and two isoforms (HDAC1 and HDAC8) was examined using the HDAC-Glo I/II Assay and Screening System assay to assess the level of inhibition of HDAC protease activity and selectivity in each isoform. The proteins and detection reagents were from the HDAC-Glo™ I/II Assay and Screening System (Promega). A 1 mM stock solution of the compound was prepared in DMSO and diluted in a 5-fold gradient to create a series of 8 concentrations, and a specific volume of the highest concentration was diluted 25 times with HDAC Buffer to obtain 4× working solution of the compound. […] The 384-well plate was then read on a multifunctional microplate reader, with the Luminescence channel selected to record Luminescence values (RLU). The inhibition rate was calculated using the following formula: […]
Note: ‘Negative’ refers to the group without the inhibitor; ‘Blank’ refers to the group without the enzyme.
The IC50 value was calculated by fitting the inhibition rate by GraphPad Prism software, employing log (inhibitor) vs. response-Variable Slope (four parameters) model.

NCI-H1417 cells = assay: In vitro cell inhibition assay - H1417 cell proliferation (CellTiter-Glo); assay type: cell-based; details: Homo sapiens, NCI-H1417, H1417 small cell lung cancer cell proliferation
Method in brief: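 Cells exposed to 8 compound concentrations (5-fold dilutions) in BEGM with 10% FBS for 7 days at 37° C., 5% CO2. Viable cells measured by CellTiter-Glo luminescence; inhibition versus no-inhibitor and no-cell controls, IC50 fitted.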

NCI-H69 cells = assay: In vitro cell inhibition assay - NCI-H69 cell proliferation (CellTiter-Glo); assay type: cell-based; details: Homo sapiens, NCI-H69, H69 small cell lung cancer cell proliferation
Method in brief: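 Luminescence from CellTiter-Glo reagent served as the viability read-out after cells were exposed to compounds for 7 days at 37° C. Eight concentrations in a 5-fold series were tested in medium with 20% FBS. Inhibition was normalised to untreated and cell-free wells before IC50 fitting.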

Chain of HDAC8 (Q9BY41 whole entry): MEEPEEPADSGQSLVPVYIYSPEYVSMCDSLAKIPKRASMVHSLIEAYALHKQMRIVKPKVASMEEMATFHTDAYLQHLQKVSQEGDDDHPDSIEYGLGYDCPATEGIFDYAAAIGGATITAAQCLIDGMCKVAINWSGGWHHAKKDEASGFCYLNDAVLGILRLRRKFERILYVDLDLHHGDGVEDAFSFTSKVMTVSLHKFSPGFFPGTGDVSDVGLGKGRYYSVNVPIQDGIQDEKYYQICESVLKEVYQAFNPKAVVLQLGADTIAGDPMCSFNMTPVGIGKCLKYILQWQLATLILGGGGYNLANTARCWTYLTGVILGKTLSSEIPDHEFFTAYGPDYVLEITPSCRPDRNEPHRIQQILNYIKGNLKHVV

| IC50 (LSD1) [nM] | IC50 (pan-HDAC) [nM] | IC50 (HDAC8) [nM] | IC50 (NCI-H1417 cells) [nM] | IC50 (NCI-H69 cells) [nM] | Structure (SMILES) |
| --- | --- | --- | --- | --- | --- |
| 0.86 | 174 | 221 | 2820 | – | N#Cc1ccc(-c2nc(N3CCC(N)CC3)cc(O)c2-c2ccc(OCCCCCCC(=O)NO)c(O)c2)cc1F [Example 19, 7-(4-(6-(4-aminopiperidin-1-yl)-2-(4-cyano-3-fluorophenyl)-4-hydroxypyridin-3-yl)-2-hydroxyphenoxy)-N-hydroxyheptanamide hydrochloride] |
| 0.23 | 6.66 | 129 | 50.1 | – | N#Cc1ccc(-c2c(-c3ccc(OCCCCCCC(=O)NO)c(O)c3)cnc(N3CCC(N)CC3)c2C#N)cc1F [Example 25, 7-(4-(6-(4-Aminopiperidin-1-yl)-5-cyano-4-(4-cyano-3-fluorophenyl)pyridin-3-yl)-2-hydroxyphenoxy)-N-hydroxyheptanamide hydrochloride] |
| > 1000 | 30.1 | 198 | – | – | N#Cc1ccc(-c2cc(OCc3ccc(/C=C/C(=O)NO)cc3)cc(N3CCC(N)CC3)n2)cc1F [Example 69, (E)-3-(4-(((2-(4-Aminopiperidin-1-yl)-6-(4-cyano-3-fluorophenyl)pyridin-4-yl)oxy)methyl)phenyl)-N-hydroxyacrylamide formate] |
| 0.93 | 5.38 | – | 10.8 | 14.3 | N#Cc1ccc(-c2c(-c3ccc(N4CCOCC4)c(O)c3)cnc(N3CCC(NCc4ccc(/C=C/C(=O)NO)cn4)CC3)c2C#N)cc1F [Example 246, (E)-3-(6-(((1-(3-Cyano-4-(4-cyano-3-fluorophenyl)-5-(3-hydroxy-4-morpholinophenyl)pyridin-2-yl)piperidin-4-yl)amino)methyl)pyridin-3-yl)-N-hydroxyacrylamide formate] |
| 17 | 1.08 | – | 2.42 | 1.93 | COc1ccc(-c2cnc(N3CCC(NCc4ccc(/C=C/C(=O)NO)cc4)CC3)c(C#N)c2-c2cnc(C#N)nc2)cc1O [Example 250, E)-3-(4-(((1-(3-Cyano-4-(2-cyanopyrimidin-5-yl)-5-(3-hydroxy-4-methoxyphenyl)pyridin-2-yl)piperidin-4-yl)amino)methyl) phenyl)-N-hydroxyacrylamide formate] |
| 3.24 | 1.03 | – | 1.86 | 4.32 | COc1ccc(-c2cnc(N3CCC(NCc4ccc(/C=C/C(=O)NO)cc4F)CC3)c(C#N)c2-c2ccc(C#N)nc2)cc1O [Example 252, (E)-3-(4-(((1-(3′,6-Dicyano-5′-(3-hydroxy-4-methoxyphenyl)-[3,4′-bipyridin]-2′-yl)piperidin-4-yl)amino)methyl)-3-fluorophenyl)-N-hydroxyacrylamide formate] |
| 342 | 0.3 | – | 13.2 | 5.25 | COC(=O)c1ccc(-c2c(-c3ccc(OC)c(O)c3)cnc(N3CCC(NCc4ccc(/C=C/C(=O)NO)cc4)CC3)c2C#N)cn1 [Example 253, Methyl (E)-3′-cyano-5′-(3-hydroxy-4-methoxyphenyl)-2′-(4-((4-(3-(hydroxyamino)-3-oxoprop-1-en-1-yl)benzyl)amino)piperidin-1-yl)-[3,4′-bipyridine]-6-carboxylate formate] |
| 35.4 | 0.41 | – | 5.77 | 4.69 | COc1ccc(-c2cnc(N3CCC(NCc4ccc(/C=C/C(=O)NO)cc4)CC3)c(C)c2-c2ccc(C#N)nc2)cc1O [Example 254, (E)-3-(4-(((1-(6-Cyano-5′-(3-hydroxy-4-methoxyphenyl)-3′-methyl-[3,4′-bipyridin]-2′-yl)piperidin-4-yl)amino)methyl)phenyl)-N-hydroxyacrylamide formate] |
| 28.8 | 0.26 | – | 8.48 | 8.63 | COc1ccc(-c2cnc(N3CCC(NCc4ccc(/C=C/C(=O)NO)cc4)CC3)c(C#N)c2-c2cnc(C#N)cn2)cc1O [Example 256, (E)-3-(4-(((1-(3-Cyano-4-(5-cyanopyrazin-2-yl)-5-(3-hydroxy-4-methoxyphenyl)pyridin-2-yl)piperidin-4-yl)amino)methyl)phenyl)-N-hydroxyacrylamide formate] |
| 7.93 | 0.59 | – | 7.61 | 11.2 | COc1ccc(-c2cnc(N3CCC(NCc4ccc(/C=C/C(=O)NO)c(OC)c4)CC3)c(C#N)c2-c2ccc(C#N)nc2)cc1O [Example 257, (E)-3-(4-(((1-(3′,6-Dicyano-5′-(3-hydroxy-4-methoxyphenyl)-[3,4′-bipyridin]-2′-yl)piperidin-4-yl)amino)methyl)-2-methoxyphenyl)-N-hydroxyacrylamide formate] |
| 81.2 | 0.25 | – | 7.2 | 7.48 | COc1ccc(-c2cnc(N3CCC(NCc4ccc(/C=C/C(=O)NO)cc4)CC3)c(C#N)c2-c2ccc(C(N)=O)nc2)cc1O [Example 259, (E)-3′-Cyano-5′-(3-hydroxy-4-methoxyphenyl)-2′-(4-((4-(3-(hydroxyamino)-3-oxoprop-1-en-1-yl)benzyl)amino)piperidin-1-yl)-[3,4′-bipyridine]-6-carboxamide formate] |
| 3.18 | 1.42 | – | 19 | 8.47 | COc1ccc(-c2cnc(N3CCC(NCc4ccc(/C=C/C(=O)NO)cc4)CC3)c(CC#N)c2-c2ccc(C#N)nc2)cc1O [Example 261, (E)-3-(4-(((1-(6-Cyano-3′-(cyanomethyl)-5′-(3-hydroxy-4-methoxyphenyl)-[3,4′-bipyridin]-2′-yl)piperidin-4-yl)amino)methyl)phenyl)-N-hydroxyacrylamide formate] |
| 7.04 | 0.61 | – | 11.8 | 11.1 | COc1cc(F)c(-c2cnc(N3CCC(NCc4ccc(/C=C/C(=O)NO)cc4)CC3)c(C)c2-c2ccc(C#N)nc2)cc1O [Example 262, (E)-3-(4-(((1-(6-Cyano-5′-(2-fluoro-5-hydroxy-4-methoxyphenyl)-3′-methyl-[3,4′-bipyridin]-2′-yl)piperidin-4-yl)amino)methyl)phenyl)-N-hydroxyacrylamide formate] |
| 7.36 | 1.93 | – | 7.49 | 13.6 | COc1ccc(-c2ccc(N3CCC(NCc4ccc(/C=C/C(=O)NO)cc4)CC3)c(C#N)c2-c2ccc(C#N)nc2)cc1O [Example 267, (E)-3-(4-(((1-(3-Cyano-2-(6-cyanopyridin-3-yl)-3′-hydroxy-4′-methoxy-[1,l′-biphenyl]-4-yl)piperidin-4-yl)amino)methyl)phenyl)-N-hydroxyacrylamide formate] |
| 193 | 0.93 | – | 2.66 | 1.87 | COc1ccc(-c2cnc(N3CCC(NCc4ccc(/C=C/C(=O)NO)cc4F)CC3)c(F)c2-c2ccc(C#N)nc2)cc1O [Example 269, (E)-3-(4-(((1-(6-Cyano-3′-fluoro-5′-(3-hydroxy-4-methoxyphenyl)-[3,4′-bipyridin]-2′-yl)piperidin-4-yl)amino)methyl)-3-fluorophenyl)-N-hydroxyacrylamide hydrochloride] |
| 24.8 | 0.32 | – | 4.88 | 3.24 | COc1cc(F)c(-c2cnc(N3CCC(NCc4ccc(/C=C/C(=O)NO)cc4)CC3)c(F)c2-c2ccc(C#N)nc2)cc1O [Example 270, (E)-3-(4-(((1-(6-Cyano-3′-fluoro-5′-(2-fluoro-5-hydroxy-4-methoxyphenyl)-[3,4′-bipyridin]-2′-yl)piperidin-4-yl)amino)methyl)phenyl)-N-hydroxyacrylamide formate] |
| 35.1 | 0.83 | – | 2.19 | 1.8 | COc1ccc(-c2cnc(N3CCC(NCc4ccc(/C=C(\F)C(=O)NO)cc4)CC3)c(F)c2-c2ccc(C#N)nc2)cc1O [Example 271, (Z)-3-(4-(((1-(6-Cyano-3′-fluoro-5′-(3-hydroxy-4-methoxyphenyl)-[3,4′-bipyridin]-2′-yl)piperidin-4-yl)amino)methyl)phenyl-2-fluoro-N-hydroxyacrylamide formate] |
| 25.2 | 0.3 | – | 16.8 | 13.3 | COc1ccc(-c2cnc(N3CCC(NCc4ccc(/C=C/C(=O)NO)cc4)CC3)cc2-c2ccc(C#N)nc2)cc1O [Example 272, ((E)-3-(4-(((1-(6-Cyano-5′-(3-hydroxy-4-methoxyphenyl)-[3,4′-bipyridin]-2′-yl)piperidin-4-yl)amino)methyl)phenyl)-N-hydroxyacrylamide formate] |
